Test results taken from US8852552B2, “Agents and methods for visualizing analytes” (priority 2010, dated 2014).

Key:
[1] = system: Peptide (NH2-)FLNCCPGCCMEP(-COOH) [SEQ ID No 6]; assay: Complex formation with tetracysteine-tagged peptide in MOPS/MES/EDT buffer, LC-MS analysis; assay type: binding; conditions: probe in DMSO + 1 mM peptide, stirred 10-30 minutes
Protocol: Experiments were performed according to Nature Protocols Vol.3 No.9, 1527-1534, (Adams & Tsien) with minor modifications.
Materials: Peptide (NH2—)[…](—COOH) [SEQ ID No 6], M.w: 1316.63, supplied by INNOVAGEN, Sweden, MOPS sodium salt FW: 231.2 CAS [71119-22-7], MES sodium salt FW: 164.16 CAS [19767-45-4], and EDT FW:94.2 CAS [540-63-6] were used as received.
HPLC analyses employed a Waters Alliance 2795 LC system, equipped with an XBridge C18 3.0×50 mm 3.5 μm column. The mass detector had polarity ES+/polarity ES-. Solvents, A: 0.1 M NH3 in milliQ water, B: MeOH. Gradient, A: 95% 0.1 min, 0.1-4 min A:95% to B:100%, 4.0-4.6 min B:100%.
The radiodetector employed was a Raytest Star (solid cell). Chromatography with radiodetection was performed using a Kromasil C18, 5μ 250×10 mm column, and an isocratic eluent composed of 35% acetonitrile in 50 mM ammonium acetate, at a flow rate of 2.0 mL/min.
To this solution was added 200 μL of 1 mM PSMXB-4 (in DMSO). […] The reaction mixture was stirred for 30 minutes. […] The mass peaks corresponded to dianionic and trianionic species.
To this solution was added 200 μL of 1 mM PSMXB-6 (in DMSO). […] The reaction mixture was stirred for 30 minutes. […] The mass peak corresponded to the dianionic species.
The reaction mixture is stirred for 10 minutes. […] The mass peak corresponded to the dianionic species. […] HPLC purification allowed isolation of the pure, tritiated complex.

[2] = system: unrelated peptide with N-terminal biotin; assay: Surface plasmon resonance, reference channel with unrelated biotinylated control peptide; assay type: binding; conditions: 100 μM injected
Description: The biotinylated peptide was immobilized on a sensor chip (Sensor Chip SA BiaCore) by non-covalent capture to streptavidin according to manufacturer instructions. An unrelated peptide with N-terminal biotin was coupled to a reference channel. […] At the end of the injection phase, the sensor surface was washed (Wash arrow FIG. 1A) with […] pH7.4, 0.15 M NaCl.

Compound | complex formation with peptide by LC-MS [1] | interaction with unrelated control peptide [2]
O=c1ccc2c(-c3ccc(F)cc3)c3ccc(O)c([As]4SCCS4)c3oc-2c1[As]1SCCS1 [PSMXB-4, 2,5-di-(1,3,2-dithiarsolan-2-yl)-9-(4-fluorophenyl)-6-hydroxy-3-fluorone] | mass spectrum consistent with the complex | –
2,5-di-(1,3,2-Dithiarsolan-2yl)-9(4-fluorophenyl)-6-[^3H3]methoxy-3-fluorone [6-[^3H3CO]-PSMXB-6] | complete conversion into the complex | –
COc1ccc2c(-c3ccc(F)cc3)c3cc([As]4SCCS4)c(=O)cc-3oc2c1[As]1SCCS1 [PSMXB-6, 2,5-di-(1,3,2-Dithiarsolan-2yl)-9(4-fluorophenyl)-6-methoxy-3-fluorone] | mass spectrum consistent with the complex | No interaction was detected
